Measured values: PMC11984924, “Dipeptidic Phosphonates: Potent Inhibitors of Pseudomonas aeruginosa Elastase B Showing Efficacy in a Murine Keratitis Model” (Advanced Science, 2025)

Legend:
MMP-2 = target: T1, MMP-2 (Homo sapiens, UniProt P08253); assay: MMP-2 inhibition (off-target); assay type: biochemical; details: read-out: MMP-2 % inhibition at 100 µM
T1 construct: purchased AnaSpec (Fremont, CA, USA)
T1 sequence (P08253 110-660): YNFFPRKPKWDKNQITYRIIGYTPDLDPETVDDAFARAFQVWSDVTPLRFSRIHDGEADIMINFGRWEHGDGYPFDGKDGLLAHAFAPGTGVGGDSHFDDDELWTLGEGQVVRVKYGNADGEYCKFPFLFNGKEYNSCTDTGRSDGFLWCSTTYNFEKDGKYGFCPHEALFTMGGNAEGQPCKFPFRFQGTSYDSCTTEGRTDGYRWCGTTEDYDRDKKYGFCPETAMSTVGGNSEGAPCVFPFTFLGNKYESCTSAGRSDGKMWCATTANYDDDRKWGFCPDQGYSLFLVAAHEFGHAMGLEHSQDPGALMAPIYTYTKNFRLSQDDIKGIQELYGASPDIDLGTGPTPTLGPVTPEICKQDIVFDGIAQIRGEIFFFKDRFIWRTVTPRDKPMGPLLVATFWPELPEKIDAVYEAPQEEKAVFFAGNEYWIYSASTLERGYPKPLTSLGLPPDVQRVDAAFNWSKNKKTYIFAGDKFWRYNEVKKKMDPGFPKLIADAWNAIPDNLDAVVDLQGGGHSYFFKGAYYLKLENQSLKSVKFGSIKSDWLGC
Experimental: 3.1 In vitro inhibition assays […]
(§1) MMPs, TACE). All in vitro inhibition assays were performed as described previously.[10] TACE inhibitor screening kits were purchased from Sigma-Aldrich (Saint Louis, MO). MMPs along with the SensoLyte 520 Generic MMP Activity Kit Fluorimetric were purchased from AnaSpec (Fremont, CA, USA). The assays were performed according to the guidelines of the respective manufacturer. Fluorescence signals were measured using a CLARIOstar plate reader (BMG Labtech, Ortenberg, Germany). […]
(§2) 3.8 Test against zinc metalloproteases MMP1–3 and TACE (ADAM17), and testing of
as §1, with “We selected a panel of human off -targets, including three human matrix metalloproteases (MMP-1, -2 and -3) and TACE (ADAM-17). These” for “MMPs, TACE). All in vitro inhibition”, “previously.[3] The” for “previously.[10]”, “kit was” for “kits were”, “Sigma -Aldrich” for “Sigma-Aldrich”
(§3) Table S6: Percent (%) inhibition of three MMPs (1 –3) and TACE (ADAM17) in presence of selected LasB inhibitors at 100 µM. Results are means and SD of at least two independent experiments. […]
(§4) Compound [% inhibition at [% inhibition at [% inhibition at [% inhibition at 100

TACE (ADAM17) = target: T2, TACE (ADAM17) (Homo sapiens, UniProt P78536); assay: TACE (ADAM17) inhibition (off-target); assay type: biochemical; details: read-out: TACE (ADAM17) % inhibition at 100 µM
T2 construct: purchased Sigma-Aldrich (Saint Louis, MO)
T2 sequence (P78536 215-824): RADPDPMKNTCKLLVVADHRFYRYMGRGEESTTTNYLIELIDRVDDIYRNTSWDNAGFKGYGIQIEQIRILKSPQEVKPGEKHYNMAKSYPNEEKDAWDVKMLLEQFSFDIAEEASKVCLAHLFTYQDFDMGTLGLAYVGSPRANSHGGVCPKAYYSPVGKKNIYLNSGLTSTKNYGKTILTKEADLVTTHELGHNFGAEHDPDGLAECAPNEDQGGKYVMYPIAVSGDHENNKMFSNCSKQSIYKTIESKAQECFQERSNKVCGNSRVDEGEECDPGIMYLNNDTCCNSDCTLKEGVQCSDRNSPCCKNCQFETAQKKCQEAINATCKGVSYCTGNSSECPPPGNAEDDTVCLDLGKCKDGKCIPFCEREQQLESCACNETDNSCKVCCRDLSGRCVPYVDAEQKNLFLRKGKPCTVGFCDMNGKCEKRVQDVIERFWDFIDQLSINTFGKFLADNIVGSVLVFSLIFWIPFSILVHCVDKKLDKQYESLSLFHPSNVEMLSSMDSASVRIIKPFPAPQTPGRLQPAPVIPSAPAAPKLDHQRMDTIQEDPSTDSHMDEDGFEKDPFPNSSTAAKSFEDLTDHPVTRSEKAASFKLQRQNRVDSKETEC
Experimental: 3.1 In vitro inhibition assays
as §1, with “LasB was expressed and purified as described previously.[3] In vitro inhibition assays (LasB, MMPs,” for “MMPs,”
as §2
as §1, with “We selected a panel of human off -targets, including three human matrix metalloproteases (MMP-1, -2 and -3) and TACE (ADAM-17). These” for “MMPs, TACE). All in vitro inhibition”, “previously.[3] The” for “previously.[10]”, “kit was” for “kits were”, “Sigma -Aldrich” for “Sigma-Aldrich”
as §3, §4

HepG2 cells = assay: Cytotoxicity HepG2; assay type: cell-based; details: Homo sapiens, HepG2, read-out: HepG2 % inhibition at 100 µM (metabolic activity), 48 hours
Experimental: HepG2 (human hepatocellular carcinoma), HEK293 (human embryonal kidney) and A549
(human lung carcinoma) cells (2x10^5 cells per well) were seeded in 24-well in flat-bottomed
plates. Culturing of cells, incubations and OD measurements were performed as described
previously with small modifications.[14] Twenty-four hours after seeding the cells the incubation
was started by the addition of compounds in a final DMSO concentration of 1%. The living cell
mass was determined after 48 hours in a PHERAstar microplate reader (BMG labtech,
Ortenberg, Germany). Two independent measurements were performed for each compound.

[1] = Kinetic solubility in PBS pH 7.4; assay type: physicochemical; details: aqueous buffer, kinetic from dmso stock
Experimental: The desired compounds were sequentially diluted in DMSO in a 96-well plate. 1.5 µL of each well were transferred into another 96-well plate and mixed with 148.5 µL of PBS. Plates were shaken for 5 min at 600 rpm at room temperature (r.t.), and the absorbance at 620 nm was measured. Absorbance values were normalized by blank subtraction and plotted using GraphPad Prism 8.4.2 (GraphPad Software, San Diego, CA, USA). […]

| Structure (SMILES) | inhibition at 100 µM (MMP-2) | inhibition at 100 µM (TACE (ADAM17)) | inhibition at 100 µM (HepG2 cells) | solubility kinetic at 5 min [1] |
| --- | --- | --- | --- | --- |
| CC(C)CC(C(=O)N[C@H](C(=O)Nc1ccc(Cl)c(Cl)c1)C1CCC1)P(=O)(O)O (stereo partly drawn) [compound 13] | < 10% | < 10% | < 10% | > 200 µM |
| CC(C)CC(C(=O)N[C@H](C(=O)Nc1ccc(Cl)c(Cl)c1)C1CCCCC1)P(=O)(O)O (stereo partly drawn) [compound 14] | < 10% | < 10% | 13% | > 200 µM |
| CC(C)CC(C(=O)N[C@H](C(=O)Nc1ccc(Cl)c(Cl)c1)C(C)C)P(=O)(O)O (stereo partly drawn) [compound 9] | < 10% | < 10% | < 10% | > 200 µM |
| CC(C)C[C@H](C(=O)N[C@H](C(=O)Nc1ccc(-n2ccnc2)cc1)C(C)C)P(=O)(O)O [(R)‐36] | < 10% | < 10% | < 10% | > 200 µM |
| CC(=O)c1ccc(NC(=O)[C@@H](NC(=O)[C@@H](CC(C)C)P(=O)(O)O)C(C)C)cc1 [(R)‐30] | < 10% | 13 ± 2% | < 10% | > 200 µM |
| CC(=O)c1ccc(NC(=O)[C@@H](NC(=O)C(CC(C)C)P(=O)(O)O)C(C)C)cc1 (stereo partly drawn) [compound 30] | < 10% | 13 ± 4% | < 10% | > 200 µM |
